Assays:
VIOTR [1] = test: Post-emergence herbicidal action; type: in vivo, Viola tricolor; details: rated visually after about 3 weeks vs untreated controls
Experimental: (§1) 2. Post-Emergence Herbicidal Action and Crop Plant Compatibility
(§2) Seeds of monocotyledonous and dicotyledonous weeds and crop plants are placed in sandy loam in plastic or organic planting pots, covered with soil and cultivated in a greenhouse under controlled growth conditions. 2 to 3 weeks after sowing, the test plants are treated at the one-leaf stage. The compounds of the invention, formulated in the form of wettable powders (WP) or as emulsion concentrates (EC), are then sprayed onto the green parts of the plants as aqueous suspension or emulsion with addition of 0.5% additive at a water application rate of […] (converted). After the test plants had been kept in the greenhouse under optimum growth conditions for about 3 weeks, the activity of the preparations is rated visually in comparison to untreated controls. The tables below show the herbicidal activity of numerous compounds according to the invention against important harmful plants. For example, 100% activity=the plants have died, 0% activity=like control plants.

MATIN [2] = test: Pre-emergence herbicidal action; type: in vivo, Matricaria inodora; details: pre-emergence, scored visually after about 3 weeks vs untreated controls
From the text: (§3) 1. Pre-Emergence Herbicidal Action and Crop Plant Compatibility
(§4) Seeds of monocotyledonous and dicotyledonous weed plants and crop plants are placed in plastic or organic planting pots and covered with soil. The compounds of the invention, formulated in the form of wettable powders (WP) or as emulsion concentrates (EC), are then applied onto the surface of the covering soil as aqueous suspension or emulsion with addition of 0.5% additive at a water application rate of 600 l/ha (converted). After the treatment, the pots are placed in a greenhouse and kept under good growth conditions for the trial plants. After about 3 weeks, the effect of the preparations is scored visually in comparison with untreated controls as percentages. The tables below show the herbicidal activity of numerous compounds according to the invention against important harmful plants. For example, 100% activity=the plants have died, 0% activity=like control plants.

AMARE [3] = test: Post-emergence herbicidal action; type: in vivo, Amaranthus retroflexus; details: rated visually after about 3 weeks vs untreated controls
Experimental: as §1, §2

ABUTH [4] = test: Post-emergence herbicidal action; type: in vivo, Abutilon theophrasti; details: post-emergence, rated visually after about 3 weeks vs untreated controls
Experimental: as §1, §2

PHBPU = test: Post-emergence herbicidal action; type: in vivo, Ipomoea purpurea; details: rated visually after about 3 weeks vs untreated controls
Experimental: as §1, §2

STEME [5] = test: Post-emergence herbicidal action; type: in vivo, Stellaria media; details: rated visually after about 3 weeks vs untreated controls
Experimental: as §1, §2

AMARE [6] = test: Pre-emergence herbicidal action; type: in vivo, Amaranthus retroflexus; details: scored visually after about 3 weeks vs untreated controls
From the text: as §3, §4

MATIN [7] = test: Post-emergence herbicidal action; type: in vivo, Matricaria inodora; details: 80 g/ha, rated visually after about 3 weeks vs untreated controls
Experimental: as §1, §2

VERPE [8] = test: Pre-emergence herbicidal action; type: in vivo, Veronica persica; details: scored visually after about 3 weeks vs untreated controls
From the text: as §3, §4

VIOTR [9] = test: Pre-emergence herbicidal action; type: in vivo, Viola tricolor; details: scored visually after about 3 weeks vs untreated controls
From the text: as §3, §4

ECHCG = test: Post-emergence herbicidal action; type: in vivo, Echinochloa crus-galli; details: rated visually after about 3 weeks vs untreated controls
Experimental: as §1, §2

VERPE [10] = test: Post-emergence herbicidal action; type: in vivo, Veronica persica; details: rated visually after about 3 weeks vs untreated controls
Experimental: as §1, §2

SETVI [11] = test: Post-emergence herbicidal action; type: in vivo, Setaria viridis; details: rated visually after about 3 weeks vs untreated controls
Experimental: as §1, §2

ABUTH [12] = test: Pre-emergence herbicidal action; type: in vivo, Abutilon theophrasti; details: pre-emergence, scored visually after about 3 weeks vs untreated controls
From the text: as §3, §4

STEME [13] = test: Pre-emergence herbicidal action; type: in vivo, Stellaria media; details: scored visually after about 3 weeks vs untreated controls
From the text: as §3, §4

SETVI [14] = test: Pre-emergence herbicidal action; type: in vivo, Setaria viridis; details: pre-emergence, 320 g/ha, scored visually after about 3 weeks vs untreated controls
From the text: as §3, §4

Cn1ncnc1NC(=O)c1ccc(C(F)(F)F)c2c1OC[S+]2[O-] (stereo not drawn) [Example 1-50]
herbicidal activity VIOTR (VIOTR [1]; 20 g/ha): 80%
herbicidal activity MATIN (MATIN [2]; 80 g/ha): 90%
herbicidal activity AMARE (AMARE [3]; 20 g/ha): 80%
herbicidal activity ABUTH (ABUTH [4]; 20 g/ha): 80%

Cn1nnnc1NC(=O)c1ccc(C(F)F)c2c1SCS2 [Example 2-22]
herbicidal activity VIOTR (VIOTR [1]; 20 g/ha): 100%
herbicidal activity PHBPU (PHBPU; 20 g/ha): 80%

Cc1ccc(C(=O)Nc2nnnn2C)c2c1S(=O)(=O)CO2 [Example 2-80]
herbicidal activity STEME (STEME [5]; 80 g/ha): 90%
herbicidal activity VIOTR (VIOTR [1]; 80 g/ha): 90%
herbicidal activity MATIN (MATIN [2]; 320 g/ha): 80%
herbicidal activity AMARE (AMARE [3]; 80 g/ha): 90%
herbicidal activity AMARE (AMARE [6]; 320 g/ha): 90%
herbicidal activity MATIN (MATIN [7]): 80%

CSc1ccc(C(=O)Nc2nnnn2C)c2c1SCS2 [Example 2-253]
herbicidal activity ABUTH (ABUTH [4]; 20 g/ha): 90%

Cn1ncnc1NC(=O)c1ccc(C(F)(F)F)c2c1OCS2 [Example 1-35]
herbicidal activity VIOTR (VIOTR [1]; 20 g/ha): 80%
herbicidal activity ABUTH (ABUTH [4]; 20 g/ha): 80%

Cn1nnnc1NC(=O)c1ccc(Cl)c2c1[S+]([O-])CS2 (stereo not drawn) [Example 2-254]
herbicidal activity AMARE (AMARE [6]; 80 g/ha): 80%

Cn1nnnc1NC(=O)c1ccc(S(C)(=O)=O)c2c1OCS2 [Example 2-58]
herbicidal activity AMARE (AMARE [3]; 20 g/ha): 80%
herbicidal activity ABUTH (ABUTH [4]; 20 g/ha): 80%

COC1Oc2c(C(=O)Nc3nnnn3C)ccc(C(F)(F)F)c2S1 (stereo not drawn) [Example 2-112, 2-methoxy-4-(trifluoromethyl)-1,3-benzoxathiolane-N-(1-methyltetrazol-5-yl)-7-carboxamide]
herbicidal activity AMARE (AMARE [3]; 20 g/ha): 80%
herbicidal activity VERPE (VERPE [8]; 80 g/ha): 80%
herbicidal activity AMARE (AMARE [6]; 80 g/ha): 90%
herbicidal activity VIOTR (VIOTR [9]; 80 g/ha): 100%
herbicidal activity ECHCG (ECHCG; 20 g/ha): 80%
herbicidal activity VERPE (VERPE [10]; 20 g/ha): 80%
herbicidal activity SETVI (SETVI [11]; 20 g/ha): 80%
herbicidal activity ABUTH (ABUTH [12]; 80 g/ha): 100%
herbicidal activity ABUTH (ABUTH [4]; 20 g/ha): 90%

Cn1nnnc1NC(=O)c1ccc(C(F)(F)F)c2c1SC[S+]2[O-] (stereo not drawn) [Example 2-255]
herbicidal activity STEME (STEME [5]; 20 g/ha): 80%
herbicidal activity VIOTR (VIOTR [1]; 20 g/ha): 80%

Cc1ccc(C(=O)Nc2nnnn2C)c2c1SCO2 [Example 2-50]
herbicidal activity PHBPU (PHBPU; 80 g/ha): 80%

Cn1nnnc1NC(=O)c1ccc(C(F)(F)F)c2c1SCS2 [Example 2-21, 7-(trifluoromethyl)-1,3-benzodithiolane-N-(1-methyltetrazol-5-yl)-4-carboxamide]
herbicidal activity STEME (STEME [5]; 20 g/ha): 80%
herbicidal activity VIOTR (VIOTR [1]; 20 g/ha): 80%
herbicidal activity STEME (STEME [13]; 80 g/ha): 90%

Cn1nnnc1NC(=O)c1ccc(C(F)F)c2c1OCS2 [Example 2-54]
herbicidal activity VIOTR (VIOTR [1]; 80 g/ha): 100%
herbicidal activity AMARE (AMARE [3]; 80 g/ha): 90%
herbicidal activity AMARE (AMARE [6]; 320 g/ha): 80%
herbicidal activity ECHCG (ECHCG; 80 g/ha): 100%
herbicidal activity PHBPU (PHBPU; 80 g/ha): 80%
herbicidal activity VERPE (VERPE [10]; 80 g/ha): 90%
herbicidal activity SETVI (SETVI [11]; 80 g/ha): 90%
herbicidal activity ABUTH (ABUTH [4]; 80 g/ha): 80%

Cn1nnnc1NC(=O)c1ccc(C(F)F)c2c1OCS2(=O)=O [Example 2-84]
herbicidal activity STEME (STEME [5]; 80 g/ha): 100%
herbicidal activity VIOTR (VIOTR [1]; 80 g/ha): 100%
herbicidal activity MATIN (MATIN [2]; 320 g/ha): 100%
herbicidal activity AMARE (AMARE [3]; 80 g/ha): 100%
herbicidal activity VERPE (VERPE [8]; 320 g/ha): 100%
herbicidal activity AMARE (AMARE [6]; 320 g/ha): 100%
herbicidal activity VIOTR (VIOTR [9]; 320 g/ha): 100%
herbicidal activity ECHCG (ECHCG; 80 g/ha): 90%
herbicidal activity PHBPU (PHBPU; 80 g/ha): 90%
herbicidal activity MATIN (MATIN [7]): 100%
herbicidal activity VERPE (VERPE [10]; 80 g/ha): 100%
herbicidal activity SETVI (SETVI [11]; 80 g/ha): 100%
herbicidal activity STEME (STEME [13]; 320 g/ha): 90%
herbicidal activity SETVI (SETVI [14]): 90%
herbicidal activity ABUTH (ABUTH [12]; 320 g/ha): 90%
herbicidal activity ABUTH (ABUTH [4]; 80 g/ha): 90%

CC1Oc2c(C(=O)Nc3nnnn3C)ccc(C(F)(F)F)c2S1 (stereo not drawn) [Example 2-94, 2-methyl-4-(trifluoromethyl)-1,3-benzoxathiolane-N-(1-methyltetrazol-5-yl)-7-carboxamide]
herbicidal activity STEME (STEME [5]; 80 g/ha): 100%
herbicidal activity VIOTR (VIOTR [1]; 80 g/ha): 80%
herbicidal activity AMARE (AMARE [3]; 80 g/ha): 90%
herbicidal activity AMARE (AMARE [6]; 320 g/ha): 100%
herbicidal activity VIOTR (VIOTR [9]; 320 g/ha): 100%
herbicidal activity ECHCG (ECHCG; 80 g/ha): 80%
herbicidal activity SETVI (SETVI [11]; 80 g/ha): 80%
herbicidal activity STEME (STEME [13]; 320 g/ha): 100%
herbicidal activity SETVI (SETVI [14]): 100%
herbicidal activity ABUTH (ABUTH [12]; 320 g/ha): 90%
herbicidal activity ABUTH (ABUTH [4]; 80 g/ha): 90%

Cn1nnnc1NC(=O)c1ccc(C(F)(F)F)c2c1S(=O)(=O)CS2(=O)=O [Example 2-43]
herbicidal activity VIOTR (VIOTR [1]; 20 g/ha): 90%
herbicidal activity MATIN (MATIN [2]; 80 g/ha): 80%
herbicidal activity AMARE (AMARE [3]; 20 g/ha): 80%
herbicidal activity AMARE (AMARE [6]; 80 g/ha): 100%
herbicidal activity VIOTR (VIOTR [9]; 80 g/ha): 100%
herbicidal activity STEME (STEME [13]; 80 g/ha): 90%
herbicidal activity ABUTH (ABUTH [12]; 80 g/ha): 100%

CSc1ccc(C(=O)Nc2nnnn2C)c2c1OC(F)(F)O2 [Example 2-13]
herbicidal activity STEME (STEME [5]; 80 g/ha): 80%
herbicidal activity AMARE (AMARE [3]; 80 g/ha): 80%
herbicidal activity VERPE (VERPE [8]; 320 g/ha): 90%
herbicidal activity VERPE (VERPE [10]; 80 g/ha): 90%
herbicidal activity ABUTH (ABUTH [4]; 80 g/ha): 80%

CCOC1Oc2c(C(=O)Nc3nnnn3C)ccc(C(F)(F)F)c2S1 (stereo not drawn) [Example 2-130]
herbicidal activity VIOTR (VIOTR [1]; 20 g/ha): 90%
herbicidal activity VIOTR (VIOTR [9]; 80 g/ha): 100%
herbicidal activity STEME (STEME [13]; 80 g/ha): 100%
herbicidal activity ABUTH (ABUTH [12]; 80 g/ha): 100%
herbicidal activity ABUTH (ABUTH [4]; 20 g/ha): 90%

Cn1ncnc1NC(=O)c1ccc(C(F)(F)F)c2c1OCS2(=O)=O [Example 1-65]
herbicidal activity AMARE (AMARE [3]; 20 g/ha): 80%
herbicidal activity PHBPU (PHBPU; 20 g/ha): 80%

Cn1nnnc1NC(=O)c1ccc(S(C)(=O)=O)c2c1OC(F)(F)O2 [Example 2-15]
herbicidal activity AMARE (AMARE [3]; 80 g/ha): 80%
herbicidal activity VERPE (VERPE [8]; 320 g/ha): 90%

CCn1nnnc1NC(=O)c1ccc(C(F)F)c2c1OCS2 [Example 3-53]
herbicidal activity STEME (STEME [5]; 80 g/ha): 90%
herbicidal activity VIOTR (VIOTR [1]; 80 g/ha): 90%
herbicidal activity AMARE (AMARE [3]; 80 g/ha): 100%
herbicidal activity AMARE (AMARE [6]; 320 g/ha): 90%
herbicidal activity VIOTR (VIOTR [9]; 320 g/ha): 100%
herbicidal activity ECHCG (ECHCG; 80 g/ha): 80%
herbicidal activity MATIN (MATIN [7]): 80%
herbicidal activity VERPE (VERPE [10]; 80 g/ha): 80%
herbicidal activity SETVI (SETVI [11]; 80 g/ha): 80%
herbicidal activity ABUTH (ABUTH [4]; 80 g/ha): 90%

COC1Sc2c(C(=O)Nc3nnnn3C)ccc(C(F)(F)F)c2S1 (stereo not drawn) [Example 2-257]
herbicidal activity VIOTR (VIOTR [1]; 20 g/ha): 80%
herbicidal activity ECHCG (ECHCG; 20 g/ha): 100%
herbicidal activity ABUTH (ABUTH [4]; 20 g/ha): 90%
